Laboratory results published in patent publication US7431088B2, “Methods of controlled acidization in a wellbore” (Halliburton Energy Services, Inc., priority 2006, dated 2008).
Where a name gives a salt, the structure may show the parent alone.

Experiments:
[1] = for hydrolysis / reaction rate (comparison in words): deionized water, molar ratio of CaCO3
Description: In the following examples, various ester hydrolysis reactions were run in the presence of calcium carbonate (CaCO3) to simulate the consumption of filter cake material. The acid evolved in each reaction was measured per unit of time. The acid generated upon hydrolysis was rapidly consumed in a secondary reaction that produced carbon dioxide (CO2). The half-life was secured when half of the CaCO3 was consumed. That is, using PV=nRT, the amount of CaCO3 that would yield approximately 1 liter of CO2 was calculated to be about 4.47 grams. We doubled the amount of CaCO3 (8.94 grams) for the reactions and then calculated the half-life based on the yield of 1 liter of CO2. Unless otherwise specified, all half-life quotations are actually the time required for 4.47 grams of CaCO3 to be consumed.
The following general procedure was used in each of the examples. The closed system reactor shown in FIG. 1 was used to measure the amount of CO2 gas that evolved in each reaction. Water or brine was added to a boiling flask 10, which was heated to 100° C. […] Once the liquid was boiling, a weighed amount of ester was added to flask 10. The amount of ester employed was always in ratio to the water or to the make-up water used to formulate the brine except where commercially available brines were used. Following addition of the ester to the boiling liquid, a reflux condenser 12 was affixed to flask 10. The top of condenser 12 was fixed with an adapter 14 to an inlet tube 18 in a 2-hole rubber stopper 16. The inlet tube 18 was passed through stopper 16, providing a seal. An outlet tube 22 was run from the bottom of a flask 20 to a 1,000 mL graduated cylinder 24. The flask 20 was charged with XP-07 base oil, commercially available from Halliburton Energy Services, Inc. The outlet tube 22 served the purpose of discharging the oil into graduated cylinder 24. The hydrolysis reaction produced acid in flask 10 that reacted with the CaCO3 to produce CO2 gas. The gas displaced the oil in flask 20 into graduated cylinder 24. The rate of CO2 evolution thus could be monitored visually by reading of the amount of oil in graduated cylinder 24 per unit of time.
Solutions containing various esters of lactic acid and of glycerol (i.e., monoacetin, ethyl lactate, triacetin, tripropionin), butyl formate (a control), and BDF-325 diethyleneglycol diformate (a control) in neutral water were prepared and combined with a molar ratio of CaCO3. Hydrolysis reactions were then carried out using the resulting solutions at 100° C. The hydrolysis reactions were monitored, and the half-lives of the esters were compared. The volume of oil displaced by the CO2 gas is plotted as a function of time in FIG. 2. […] The butyl formate to CaCO3 molar ratio was doubled for comparison purposes.
Solutions containing 10 volume % monoacetin, diacetin, and triacetin in deionized water were prepared and combined with a molar ratio of CaCO3. Hydrolysis reactions were then carried out using the resulting solutions at 100° C. The hydrolysis reactions were monitored, and the half-lives of the esters were compared. The volume of oil displaced by the CO2 gas is plotted as a function of time in FIG. 3.

[2] = Solubility of ester in water; type: physicochemical

| effect of doubling the ester to CaCO3 molar ratio on reaction rate [1] | hydrolysis / reaction rate (comparison in words) ([1]; 100° C.) | SMILES | further results |
| --- | --- | --- | --- |
| doubled its reaction rate | faster than that of the butyl formate | CCCCOC(=O)C(C)O (stereo not drawn) [Butyl lactate] | – |
| – | very similar | CC(=O)OCC(O)COC(C)=O [Diacetin] | – |
| – | – | CCOC(=O)C(C)O (stereo not drawn) [Ethyl Lactate] | hydrolysis performance in different aqueous solutions ([1]; 10 volume % in deionized water and various brines, 100° C.): performed consistently |
| – | – | CC(=O)OCC(O)CO (stereo not drawn) [Monoacetin] | half-life relative to target ([1]; buffer): within the targeted range |
| – | very similar | CC(=O)OCC(COC(C)=O)OC(C)=O [Triacetin] | – |
| surprisingly similar | slow reaction rate | CCCCOC=O [butyl formate, reference compound] | solubility in water [2]: relative insolubility |
